The values that follow come from patent US12234227B2, “Pyrazole derivatives as H4 antagonist compounds” (NXERA PHARMA UK LIMITED, priority 2018, dated 2025).

Each structure is given as a SMILES string. Structures can show the parent of a compound that is named as a salt. Where two headings read alike, the source gives them in different places.

Data set [1] concerns the target T1, human H4 receptor (Homo sapiens, UniProt Q9H3N8).
T1 construct: expressed in transfected cells; host or cells: HEKf cells transduced with baculovirus
Put plainly: H4 Antagonist Functional Dynamic Mass Redistribution Assay. Type of data set: cell-based. The conditions noted are these: H4 antagonist activity; for Kb: read-out: Human H4 DMR fpKb (converted). The procedure: H4 Antagonist Functional Dynamic Mass Redistribution Assay
HEKf cells were infected using baculovirus expressing the human H4 receptor, plated into fibronectin-coated EPIC plates at a density of 10,000 cells/well and incubated overnight at 37° C. The medium on cells was changed to 30 μL HBSS with 20 mM HEPES per well and 30 nL DMSO were added per well by LabCyte ECHO acoustic dispensing. Following 2 h equilibration at room temperature, 30 nL of H4 ligands prepared in DMSO were stamped by LabCyte ECHO acoustic dispensing into seeded EPIC plates and cellular dynamic mass redistribution was monitored using a Corning EPIC plate reader. Following 45 min measurement, 30 nL/well of histamine EC80 was added and monitored to obtain antagonist assay data. Maximum baseline-corrected responses in […] were used to generate concentration response curves. EC50 values were generated using a 4-parameter logistical fit equation to quantify agonist potencies. Functional antagonist affinity values were generated using the Cheng-Prusoff equation to calculate a pKb value using the antagonist assay data.

Data set [2] addresses T2, hERG (Homo sapiens, UniProt Q12809). The data set can be described thus: hERG Assay (QPatch automated patch clamp; single-concentration assay at 30 μM and pIC50 assay). In general terms: The hERG channel carries a current that helps repolarise heart muscle cells.
Data set [3] concerns the target T1, human H4 receptor. Put plainly: H4 Antagonist Functional cAMP Gi Assay. Type of data set: cell-based. Conditions: H4 antagonist activity; for Kb: read-out: Human H4 CAMP fpKb (converted). As to the method:
H4 Antagonist Functional cAMP Gi Assay
HEKf cells were infected overnight using baculovirus expressing the human H4 receptor, then centrifuged at 1,200 rpm for 5 min, frozen in cell freezing medium (Sigma) and stored at −150° C. On the day of assay, the cells were thawed and resuspended in HBSS with 500 nM IBMX to achieve a density of 1,500 cells/well. H4 ligands were prepared in DMSO and stamped by LabCyte ECHO acoustic dispensing at 25 nL in low volume plates. 10 μL/well cells were plated in the presence of 1 μM forskolin, subjected to centrifugation at 1,200 rpm for 1 min and incubated for 30 min prior to addition of Cisbio cAMP detection reagents to a total volume 20 μL/well. For the antagonist assay, cells were pre-incubated with H4 antagonist ligands for 30 min prior to addition of EC80 concentration of histamine and a further 30 min incubation. Following detection reagent addition and shaking at room temperature for 60 min, cAMP accumulation was measured using HTRF on a PheraStar plate reader. EC50 values were generated using a 4-parameter logistical fit equation to quantify agonist potencies. Functional antagonist affinity values were generated using the Cheng-Prusoff equation to calculate a pKb value using the antagonist assay data.

The target in data set [4] is T2, hERG. Put plainly: in vitro.
[5] abbreviates: human, CHO cells stably expressing hERG.

T2 sequence (Q12809 whole entry): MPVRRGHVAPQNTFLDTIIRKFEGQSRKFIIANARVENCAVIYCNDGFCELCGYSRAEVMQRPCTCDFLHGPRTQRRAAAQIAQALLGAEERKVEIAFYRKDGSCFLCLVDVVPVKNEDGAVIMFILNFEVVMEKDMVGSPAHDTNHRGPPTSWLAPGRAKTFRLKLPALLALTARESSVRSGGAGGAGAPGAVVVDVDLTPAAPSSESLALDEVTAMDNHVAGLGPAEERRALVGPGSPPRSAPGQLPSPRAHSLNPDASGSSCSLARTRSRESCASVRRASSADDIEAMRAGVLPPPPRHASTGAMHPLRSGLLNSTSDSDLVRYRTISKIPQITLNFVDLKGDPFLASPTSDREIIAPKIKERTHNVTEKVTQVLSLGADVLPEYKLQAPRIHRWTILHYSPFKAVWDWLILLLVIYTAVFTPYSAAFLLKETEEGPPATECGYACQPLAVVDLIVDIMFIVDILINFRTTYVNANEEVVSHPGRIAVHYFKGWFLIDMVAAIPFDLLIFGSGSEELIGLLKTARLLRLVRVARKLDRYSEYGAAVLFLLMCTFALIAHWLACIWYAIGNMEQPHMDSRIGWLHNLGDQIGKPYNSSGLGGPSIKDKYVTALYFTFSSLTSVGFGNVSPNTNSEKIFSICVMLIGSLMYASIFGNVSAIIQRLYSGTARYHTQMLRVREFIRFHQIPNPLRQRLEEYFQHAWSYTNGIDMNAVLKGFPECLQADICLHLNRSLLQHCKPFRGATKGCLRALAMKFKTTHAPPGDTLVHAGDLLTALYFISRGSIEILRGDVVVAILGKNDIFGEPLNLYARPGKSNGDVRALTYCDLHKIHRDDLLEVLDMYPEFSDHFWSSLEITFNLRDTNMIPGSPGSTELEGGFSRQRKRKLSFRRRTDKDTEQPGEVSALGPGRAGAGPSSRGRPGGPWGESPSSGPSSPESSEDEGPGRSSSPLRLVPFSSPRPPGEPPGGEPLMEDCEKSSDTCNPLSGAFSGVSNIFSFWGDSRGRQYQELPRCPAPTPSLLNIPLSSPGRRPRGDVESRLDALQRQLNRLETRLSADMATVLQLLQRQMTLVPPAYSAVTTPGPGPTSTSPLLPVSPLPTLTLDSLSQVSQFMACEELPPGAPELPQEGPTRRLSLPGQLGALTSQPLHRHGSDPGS
T1 sequence (Q9H3N8 whole entry): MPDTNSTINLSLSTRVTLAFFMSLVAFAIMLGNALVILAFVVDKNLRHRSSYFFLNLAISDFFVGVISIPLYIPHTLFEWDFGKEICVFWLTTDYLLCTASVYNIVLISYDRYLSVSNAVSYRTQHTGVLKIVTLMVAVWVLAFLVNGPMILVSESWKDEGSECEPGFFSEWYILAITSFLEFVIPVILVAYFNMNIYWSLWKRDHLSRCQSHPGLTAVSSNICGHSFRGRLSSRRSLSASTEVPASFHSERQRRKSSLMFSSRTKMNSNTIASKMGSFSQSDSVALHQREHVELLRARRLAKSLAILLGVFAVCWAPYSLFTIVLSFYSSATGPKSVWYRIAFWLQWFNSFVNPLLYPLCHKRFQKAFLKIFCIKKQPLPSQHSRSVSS

Consider `CN[C@@H]1CCN(c2cc(-c3cnn(C)c3)nc(N)n2)C1` [Example 8-2], for which the figures for the Kb on human H4 receptor [1] and at human H4 receptor [3] were 1.26 nM and 31.6 nM, respectively. This compound returned an inhibition at 30 µM against hERG [2] (setting [5]) of 13%.

Consider `CN[C@@H]1CCN(c2cc(-c3cnn(C4CC4)c3)nc(N)n2)C1` [Example 8-4], for which the Kb on human H4 receptor [1] is 20 nM; at human H4 receptor [3] it was 50.1 nM. Further, the inhibition at 30 µM on hERG [2] (setting [5]) worked out at 54%.

`CN[C@@H]1CCN(c2cc(-c3cnn(C(F)(F)F)c3)nc(N)n2)C1` [Example 8-7, dihydrochloride]: the Kb on human H4 receptor [1] was 3.98 nM. On hERG [2] (setting [5]), this compound showed an IC50 of 31600 nM and an inhibition at 30 µM of 49%. Moreover, the Kb at human H4 receptor [3] is 3.16 nM.

For the compound `CN[C@@H]1CCN(c2cc(-c3cnn(CCOC)c3)nc(N)n2)C1` [Example 8-10], the Kb on human H4 receptor [1] and at human H4 receptor [3] was 126 nM in each case. At hERG [2], this compound showed an IC50 of at least 100000 nM.

Turning to `CNC1CN(c2cc(-c3cnn(C(F)(F)F)c3)nc(N)n2)C1` [Example 8-16, ditrifluoroacetate], the values for the Kb on human H4 receptor [1] and on human H4 receptor [3] were 1.58 nM and 0.794 nM, respectively. At hERG [2], this compound had an IC50 above 100000 nM. This compound also displayed an inhibition at 30 µM against hERG [2] (setting [5]) of 33%.

As to `CN[C@@H]1CCN(c2cc(-c3cn[nH]c3C)nc(N)n2)C1` [Example 9-1], the Kb on human H4 receptor [1] was 3.98 nM; on human H4 receptor [3], 7.94 nM. The compound also had an IC50 against hERG [2] of at least 100000 nM.

For `CN[C@@H]1CCN(c2cc(-c3cn[nH]c3C(C)C)nc(N)n2)C1` [Example 9-3], the Kb on human H4 receptor [1] and on human H4 receptor [3] was 15.8 nM in each case. In addition, the inhibition at 30 µM against hERG [2] (setting [5]) turned out to be 24%.

In the case of `CN[C@@H]1CCN(c2cc(-c3cn[nH]c3C(F)(F)F)nc(N)n2)C1` [Example 9-6], the Kb was 2.51 nM at human H4 receptor [1] and 6.31 nM on human H4 receptor [3]. The compound also returned an inhibition at 30 µM at hERG [2] (setting [5]) of 18%.

Consider `Cc1[nH]ncc1-c1cc(N2CC[C@@H](N)C2)nc(N)n1` [Example 9-7], for which the figures for the Kb at human H4 receptor [1] and at human H4 receptor [3] were 10 nM and 15.8 nM, respectively. The same compound had an inhibition at 30 µM against hERG [2] (setting [5]) of 12%.

Turning to `CN[C@@H]1CCN(c2cc(-c3c(C)n[nH]c3C)nc(N)n2)C1` [Example 10-1], the Kb on human H4 receptor [1] is 39.8 nM; on human H4 receptor [3] it was 50.1 nM. On hERG [2] (setting [5]), this compound showed an inhibition at 30 µM of 21%.

In the case of `CN[C@@H]1CCN(c2cc(-c3cn(C)nc3C)nc(N)n2)C1` [Example 11-1, (R)-4-(1,3-dimethyl-1H-pyrazol-4-yl)-6-(3-(methylamino)pyrrolidin-1-yl)pyrimidin-2-amine], the results for the Kb on human H4 receptor [1] and on human H4 receptor [3] were 2.51 nM and 12.6 nM, respectively. Besides, the IC50 against hERG [2] was at least 100000 nM. Moreover, 30 µM produced 2% inhibition against hERG [2] (setting [5]).

With `CCc1nn(C)cc1-c1cc(N2CC[C@@H](NC)C2)nc(N)n1` [Example 11-2, dihydrochloride], the Kb at human H4 receptor [1] and at human H4 receptor [3] was 79.4 nM throughout. Further, at 30 µM the inhibition on hERG [2] (setting [5]) was 20%.

Regarding `CN[C@@H]1CCN(c2cc(-c3cn(C(F)F)nc3C)nc(N)n2)C1` [Example 11-6], the Kb on human H4 receptor [1] was 3.98 nM; on human H4 receptor [3], 6.31 nM. The compound also had an inhibition at 30 µM against hERG [2] (setting [5]) of 90%.

On to `CN[C@@H]1CCN(c2cc(-c3cnn(C)c3C)nc(N)n2)C1` [Example 12-1], for which the figures for the Kb on human H4 receptor [1] and at human H4 receptor [3] were 2.51 nM and 7.94 nM, respectively. The IC50 against hERG [2] is at least 100000 nM.

In the case of `CN[C@@H]1CCN(c2cc(-c3cnn(C(F)F)c3C)nc(N)n2)C1` [Example 12-3], the Kb at human H4 receptor [1] was 6.31 nM; on human H4 receptor [3], 15.8 nM. This compound also returned an inhibition at 30 µM on hERG [2] (setting [5]) of 47%.

For `CN[C@@H]1CCN(c2cc(-c3c(C)nn(C)c3C)nc(N)n2)C1` [Example 13-1], the results for the Kb at human H4 receptor [1] and on human H4 receptor [3] were 5.01 nM and 20 nM, respectively. The compound also yielded an inhibition at 30 µM against hERG [2] (setting [5]) of 7%.

On to `CN[C@@H]1CCN(c2cc(-c3[nH]ncc3Br)nc(N)n2)C1` [Example 16-12], for which the Kb is 0.126 nM at human H4 receptor [1] and 0.398 nM at human H4 receptor [3]. For the same compound, at 30 µM the inhibition at hERG [2] (setting [5]) was 45%.

For `Cc1n[nH]c(-c2cc(N3C[C@H]4CCCN[C@H]4C3)nc(N)n2)c1Cl` [Example 17-7, dihydrochloride], the Kb at human H4 receptor [1] was 31.6 nM. Besides, the inhibition at 30 µM against hERG [4] is 38%.

Consider `CC(C)c1cc(N2CC[C@@H](N)C2)nc(N)n1` [JNJ-39758979], for which the “Human H4 DMR fpKb” value on human H4 receptor [1] is 8.5. Besides, the “hERG pIC50” value on hERG [2] (QPatch, 1, 3, 10 and 30 μM) is listed as at most 4.0. Also, the “Human H4 CAMP fpKb” value on human H4 receptor [3] was determined as 8.1.

Usually inhibition stands for the relative decrease from the control value, in per cent. A word on the IC50: it is the concentration that inhibits the measured activity by half.
